Measurements published in ChEMBL document CHEMBL4145625 (J Med Chem, 2018).
Values belong to the compound of their own block, whether it stands above or below them.

Tests used:
NCI-H460 = test: cells; format: functional, cell-based; conditions: Homo sapiens, NCI-H460, 96 h;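 also: cytotoxicity determined with an MTT assay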
Description: Cytotoxicity against human NCI-H460 cells after 96 hrs by MTT assay

[1] = target: Phosphatidylinositol 4,5-bisphosphate 3-kinase catalytic subunit alpha isoform (Homo sapiens, UniProt P42336); test: Inhibition of PI3Kalpha (unknown origin) using PIP2 as substrate by Kinase-Glo assay
Chain of Phosphatidylinositol 4,5-bisphosphate 3-kinase catalytic subunit alpha isoform (P42336 whole entry, canonical isoform): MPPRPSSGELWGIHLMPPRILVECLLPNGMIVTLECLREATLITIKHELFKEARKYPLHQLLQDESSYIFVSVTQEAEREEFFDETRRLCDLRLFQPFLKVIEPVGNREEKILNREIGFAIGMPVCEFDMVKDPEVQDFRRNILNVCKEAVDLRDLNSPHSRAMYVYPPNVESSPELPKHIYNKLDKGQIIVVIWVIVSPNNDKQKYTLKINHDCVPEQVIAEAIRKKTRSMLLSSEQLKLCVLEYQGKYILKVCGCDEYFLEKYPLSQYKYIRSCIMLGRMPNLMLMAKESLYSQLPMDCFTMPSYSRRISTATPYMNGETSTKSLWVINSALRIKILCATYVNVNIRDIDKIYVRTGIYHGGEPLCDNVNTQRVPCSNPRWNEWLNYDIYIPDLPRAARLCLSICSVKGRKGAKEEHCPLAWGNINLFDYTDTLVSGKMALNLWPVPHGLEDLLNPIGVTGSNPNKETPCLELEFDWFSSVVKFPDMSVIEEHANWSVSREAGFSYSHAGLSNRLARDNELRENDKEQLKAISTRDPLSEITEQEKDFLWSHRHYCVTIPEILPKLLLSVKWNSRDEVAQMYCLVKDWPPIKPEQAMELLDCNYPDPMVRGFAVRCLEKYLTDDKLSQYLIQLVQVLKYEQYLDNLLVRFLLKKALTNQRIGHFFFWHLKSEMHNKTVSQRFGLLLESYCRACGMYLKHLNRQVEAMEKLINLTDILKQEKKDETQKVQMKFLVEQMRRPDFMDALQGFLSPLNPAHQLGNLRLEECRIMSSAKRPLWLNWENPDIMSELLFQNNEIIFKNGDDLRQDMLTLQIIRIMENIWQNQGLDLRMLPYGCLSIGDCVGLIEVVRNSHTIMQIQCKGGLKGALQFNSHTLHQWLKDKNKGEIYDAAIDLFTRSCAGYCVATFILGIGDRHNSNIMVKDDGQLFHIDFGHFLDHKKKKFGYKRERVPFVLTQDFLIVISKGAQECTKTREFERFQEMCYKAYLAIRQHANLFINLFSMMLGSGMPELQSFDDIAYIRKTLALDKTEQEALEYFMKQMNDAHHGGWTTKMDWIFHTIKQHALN

SMILES: COc1ncc(-c2cc(OC3CCOCC3)c3nc(NC(C)=O)nc(C)c3c2)cc1NS(C)(=O)=O
IC50 (NCI-H460): 3200 nM
IC50 [1]: 11 nM

SMILES: Cc1ncc(-c2cc(OC3CCOCC3)c3nc(N)nc(C)c3c2)cc1NS(=O)(=O)c1ccc(F)cc1F
IC50 (NCI-H460): 2100 nM
IC50 [1]: 1.4 nM

SMILES: COc1ncc(-c2cc(OC3CCCCC3)c3nc(N)nc(C)c3c2)cc1NS(=O)(=O)c1ccc(F)cc1F
IC50 (NCI-H460): 96 nM
IC50 [1]: 0.95 nM

SMILES: CNc1nc(C)c2cc(-c3cnc(OC)c(NS(=O)(=O)c4ccc(F)cc4F)c3)cc(OC3CCCC3)c2n1
IC50 [1]: 6.6 nM

SMILES: CNc1nc(C)c2cc(-c3cnc(OC)c(NS(=O)(=O)c4ccc(F)cc4F)c3)cc(OC3CCOC(C)(C)C3)c2n1 (stereo unspecified)
IC50 (NCI-H460): 250 nM
IC50 [1]: 1.8 nM

SMILES: Cc1nc(N)nc2c(OC3CCOCC3)cc(-c3cnc(Cl)c(NS(=O)(=O)c4ccc(F)cc4)c3)cc12
IC50 (NCI-H460): 1200 nM
IC50 [1]: 1.7 nM

SMILES: COc1ncc(-c2cc(OC3CCOCC3)c3nc(N(C)C)nc(C)c3c2)cc1NS(=O)(=O)c1ccc(F)cc1F
IC50 (NCI-H460): 4300 nM
IC50 [1]: 125 nM

SMILES: CNc1nc(C)c2cc(-c3cnc(OC)c(NS(=O)(=O)c4ccc(F)cc4F)c3)cc(OC3CCC3)c2n1
IC50 [1]: 4.1 nM

SMILES: COCCOc1cc(-c2cnc(OC)c(NS(=O)(=O)c3ccc(F)cc3F)c2)cc2c(C)nc(N)nc12
IC50 (NCI-H460): 200 nM

SMILES: CNc1nc(C)c2cc(-c3cnc(OC)c(NS(=O)(=O)c4ccc(F)cc4F)c3)cc(O[C@H]3CCOC3)c2n1
IC50 [1]: 1.4 nM

SMILES: COc1ncc(-c2cc(OC)c3nc(N)nc(C)c3c2)cc1NS(=O)(=O)c1ccc(F)cc1F
IC50 (NCI-H460): 280 nM

SMILES: COc1ncc(-c2cc(OCCN3CCOCC3)c3nc(N)nc(C)c3c2)cc1NS(=O)(=O)c1ccc(F)cc1F
IC50 (NCI-H460): 1100 nM
IC50 [1]: 3.3 nM

SMILES: COc1ncc(-c2cc(OC3CCC(F)(F)CC3)c3nc(N)nc(C)c3c2)cc1NS(=O)(=O)c1ccc(F)cc1F
IC50 (NCI-H460): 83 nM
IC50 [1]: 1.6 nM

SMILES: COc1ncc(-c2cc(OCC3CCCO3)c3nc(N)nc(C)c3c2)cc1NS(=O)(=O)c1ccc(F)cc1F (stereo unspecified)
IC50 [1]: 1.1 nM

SMILES: COc1ncc(-c2cc(OC3CCC3)c3nc(N)nc(C)c3c2)cc1NS(=O)(=O)c1ccc(F)cc1F
IC50 [1]: 0.95 nM

SMILES: COc1ncc(-c2cc(OC3CCOCC3)c3nc(N)nc(C)c3c2)cc1NS(=O)(=O)C1CC1
IC50 (NCI-H460): 930 nM
IC50 [1]: 2.5 nM

The remaining compounds from weak to strong by IC50 [1], led by results:

IC50 [1]: 31 nM
SMILES: COc1ccc(-c2cc(OC3CCOCC3)c3nc(N)nc(C)c3c2)cn1
IC50 (NCI-H460): 980 nM

IC50 [1]: 16 nM
SMILES: COc1ncc(-c2cc(OC3CCOCC3)c3nc(N)nc(C)c3c2)cc1F
IC50 (NCI-H460): 1100 nM

IC50 [1]: 9.8 nM
SMILES: CNc1nc(C)c2cc(-c3cnc(OC)c(NS(=O)(=O)c4ccc(F)cc4F)c3)cc(OC3CCCCC3)c2n1
IC50 (NCI-H460): 1700 nM

IC50 [1]: 5.4 nM
SMILES: COc1ncc(-c2cc(OC3CCOCC3)c3nc(NCC4CC4)nc(C)c3c2)cc1NS(=O)(=O)c1ccc(F)cc1F
IC50 (NCI-H460): 410 nM

IC50 [1]: 4.8 nM
SMILES: COc1ncc(-c2cc(OC3CCN(C)CC3)c3nc(N)nc(C)c3c2)cc1NS(=O)(=O)c1ccc(F)cc1F
IC50 (NCI-H460): 660 nM

IC50 [1]: 2.6 nM
SMILES: COc1ncc(-c2cc(OC3CCOCC3)c3nc(N)nc(C)c3c2)cc1NS(C)(=O)=O
IC50 (NCI-H460): 860 nM

IC50 [1]: 2 nM
SMILES: CNc1nc(C)c2cc(-c3cnc(OC)c(NS(=O)(=O)c4ccc(F)cc4F)c3)cc(OCC3CCOC3)c2n1 (stereo unspecified)
IC50 (NCI-H460): 310 nM

IC50 [1]: 1.8 nM
SMILES: CNc1nc(C)c2cc(-c3cnc(OC)c(NS(=O)(=O)c4ccc(F)cc4F)c3)cc(OCC3CCOCC3)c2n1
IC50 (NCI-H460): 400 nM

IC50 [1]: 1.5 nM
SMILES: CCNc1nc(C)c2cc(-c3cnc(OC)c(NS(=O)(=O)c4ccc(F)cc4F)c3)cc(OC3CCOCC3)c2n1
IC50 (NCI-H460): 240 nM

IC50 [1]: 1.4 nM
SMILES: COc1ncc(-c2cc(OCC3CC3)c3nc(N)nc(C)c3c2)cc1NS(=O)(=O)c1ccc(F)cc1F
IC50 (NCI-H460): 200 nM

IC50 [1]: 1.4 nM
SMILES: COc1ncc(-c2cc(OC3CCOCC3)c3nc(NC(C)=O)nc(C)c3c2)cc1NS(=O)(=O)c1ccc(F)cc1F
IC50 (NCI-H460): 53 nM

IC50 [1]: 1.2 nM
SMILES: COc1ncc(-c2cc(OCC3CCOC3)c3nc(N)nc(C)c3c2)cc1NS(=O)(=O)c1ccc(F)cc1F (stereo unspecified)

IC50 [1]: 1.2 nM
SMILES: COc1ncc(-c2cc(OC3CCOCC3)c3nc(N)nc(C)c3c2)cc1NS(=O)(=O)c1ccc(F)cc1
IC50 (NCI-H460): 96 nM

IC50 [1]: 1.1 nM
SMILES: COc1ncc(-c2cc(OC3CCOCC3)c3nc(N)nc(C)c3c2)cc1NS(=O)(=O)c1ccc(F)cc1Cl
IC50 (NCI-H460): 17 nM

IC50 [1]: 1.1 nM
SMILES: COc1ncc(-c2cc(OC3CCOCC3)c3nc(N)nc(C)c3c2)cc1NS(=O)(=O)c1ccc(Cl)s1

IC50 [1]: 0.87 nM
SMILES: COc1ncc(-c2cc3c(C)nc(N)nc3n([C@H]3CC[C@H](OCCO)CC3)c2=O)cc1NS(=O)(=O)c1ccc(F)cc1F
IC50 (NCI-H460): 360 nM

IC50 [1]: 0.83 nM
SMILES: COc1ncc(-c2cc(O[C@H]3CCOC3)c3nc(N)nc(C)c3c2)cc1NS(=O)(=O)c1ccc(F)cc1F
IC50 (NCI-H460): 94 nM

IC50 [1]: 0.73 nM
SMILES: COc1ncc(-c2cc(OCC3CCOCC3)c3nc(N)nc(C)c3c2)cc1NS(=O)(=O)c1ccc(F)cc1F
IC50 (NCI-H460): 21 nM

IC50 [1]: 0.7 nM
SMILES: COc1ncc(-c2cc(OC(C)C)c3nc(N)nc(C)c3c2)cc1NS(=O)(=O)c1ccc(F)cc1F
IC50 (NCI-H460): 140 nM
